Patent publication US6719969B1, “Treatment of liver disease and injury with CXC chemokines” (The Regents of The University of Michigan, priority 1999, dated 2004)

B1: SCF: recombinant murine stem cell factor (protein)
chain: KEICGNPVTDNVKDITKLVANLPNDYMITLNYVAGMDVLPSHCWLRDMVIQLSLSLTTLLDKFSNISEGLSNYSIIDKLGKIVDDLVLCMEENAPKNIKESPKRPETRSFTPEEFFSIFNRSIDAFKDFMVASDTSDCVLSSTLGPEKDSRVSVTKPFMLPPVA

Experiments:
CBA/J mice = assay: Acetaminophen dose response in CBA/J mice; type: in vivo, mouse; details: 8 h fast
Experimental: (§1) Six wk old female CBA/J mice (Jackson Laboratory, Bar Harbor, Me.) were fasted, but with free access to water, for 8 h prior to intraperitoneal (I.P.) injection of acetaminophen (Sigma) at 200 or 300 mg/kg, dissolved in normal saline. After injection, the animals were allowed free access to food. Mice were euthanized and liver was taken from the mice at various time points after acetaminophen injection into the mice.
To determine the level of acetaminophen that was necessary to induce liver damage, a dose response was performed. In these studies, normal CBA/J mice were fasted for 8 h and subsequently given an intraperitoneal injection of acetaminophen dissolved in PBS or PBS alone for control. Mouse survival was followed for 4 days when the study was terminated. 20 mice/group were used in 2 separate studies.

CD1 and BALB/c mice = assay: Acetaminophen lethality, pilot studies in CD1 and BALB/c mice; type: in vivo, mouse; details: 400 mg/kg i.p., 12 h fast
Experimental: Protocol 2: In the second series of studies, CD1, CXCR2ko and CXCR2wt mice were allowed free access to water for 12 h prior to an i.p. injection of 400 mg/kg acetaminophen. All acetaminophen challenged mice were fasted in this manner because previous studies have shown that fasting promotes hepatic susceptibility to acetaminophen toxicity by decreasing the inactivation of chemically reactive metabolites […], allowing these metabolites to bind hepatocyte proteins and cause cell damage (Whitcomb and Block, 1994; Pessayre et al., 1979; each incorporated herein by reference). […] Two hours prior to acetaminophen challenge, CD1 mice (n=1 0/group) were injected with 0.5 ml of normal rabbit serum or anti-mouse MIP-2 antiserum, and mouse survival was monitored for the subsequent 4 days. CXCR2ko and CXCR2wt mice (n=5/group) were injected i.p. with the same dose of acetaminophen, and mouse survival was monitored for 4 days.

[1] = system: CBA/J mice treated with acetaminophen; assay: Exogenous SCF at lethal acetaminophen dose; type: in vivo, mouse
Experimental: as §1
Hepatic damage was measured using an AXIO-HOME microscope by 2 independent investigators. Sections of liver tissue (2 from each animal) were stained with hematoxylin and eosin and the area of hepatic damage was outlined and expressed as a % of total liver area examined.
In order to finally determine whether SCF has a role in protecting the animals from acetaminophen toxicity, 1 μg of recombinant murine SCF or saline was injected i.v. at the time of or within 30 min. of acetaminophen challenge. The survival of animals was recorded for 4 days and the study was terminated. % Survival data was collected from 2 separate studies with a total of 20 mice in each treatment group.

Row | Molecule | Lethality (CBA/J mice; 200 mg/kg i.p.) | Lethality (CBA/J mice; 300 mg/kg i.p., by 48 h) | Lethality (CD1 and BALB/c mice) | Hepatocyte proliferation in vitro (hepatocytes) | Survival ([1]; 1 ug i.v. at or within 30 min of lethal acetaminophen dose, 4 days) | Liver histology ([1]; 300 mg/kg acetaminophen, 1 ug SCF)
1 | CC(=O)Nc1ccc(O)cc1 [acetaminophen] | no lethality | ~100% | approximately 10% | – | – | –
2 | B1 | – | – | – | can directly induce hepatocyte proliferation in vitro | 90% | no necrotic areas
